Laboratory results reported in ChEMBL document CHEMBL6134780, “Halogenated retinoid derivatives as dual RARα and RXRα modulators for treating acute promyelocytic leukemia cells” (Eur J Med Chem, 2024).
Activity calls are given as the source filed them. The calls are words filed in the database; no cut-off is given here.

Columns and labels:
NB-4 [1] = assay: Induction of apoptosis in human NB4 cells assessed as late apoptotic cells at 1 uM incubated for 24 hrs by Annexin V-FITC/PI staining based flow cytometric analysis (reference value: 3.20 %); type: functional
K562 [2] = assay: Induction of apoptosis in human K562 cells assessed as viable cells at 1 uM incubated for 24 hrs by Annexin V-FITC/PI staining based flow cytometric analysis (reference value: 90.02 %); type: functional; settings: read-out: Activity
NB-4 [3] = assay: Induction of mitosis in human NB4 cells assessed as upregulation of pT210-PLK1 expression at 2 uM measured after 3 hrs by Western blot analysis; type: functional, cell-based
NB-4 [4] = assay: Cell cycle arrest in human NB4 cells assessed as increase in PLK1 expression at 2 uM incubated for 3 to 24 hrs by Western blot analysis; type: functional, cell-based; settings: time 3-24 hrs
ATRA-resistant NB4-LR2 [5] = assay: Induction of apoptosis in human ATRA-resistant NB4-LR2 cells assessed as increase in cleaved-PARP expression at 2 uM incubated for 3 to 24 hrs by Western blot analysis; type: functional, cell-based; settings: time 3-24 hrs
NB-4 [6] = assay: Induction of cell differentiation in human NB4 cells assessed as NBT positive cells at 0.5 uM incubated for 6 days by Nitro Blue tetrazolium chloride based microscopic analysis (reference value: 0 %); type: functional; settings: time 6 day
ATRA-resistant NB4-LR2 [7] = assay: Cell cycle arrest in human ATRA-resistant NB4-LR2 cells assessed as increase in cyclin B1 expression at 2 uM incubated for 3 to 24 hrs by Western blot analysis; type: functional, cell-based; settings: time 3-24 hrs
[8] = molecular target: T1, Retinoic acid receptor gamma (Homo sapiens, UniProt P13631); assay: Agonist activity at Gal4-fused full length human RARgamma LBD transfected in HEK293T cells co-transfected with pG5luc reporter and Renilla-luc assessed as transactivation incubated for 12 hrs by dual luciferase reporter gene assay; type: cell-based; settings: read-out: EC50
T1 sequence (P13631 whole entry): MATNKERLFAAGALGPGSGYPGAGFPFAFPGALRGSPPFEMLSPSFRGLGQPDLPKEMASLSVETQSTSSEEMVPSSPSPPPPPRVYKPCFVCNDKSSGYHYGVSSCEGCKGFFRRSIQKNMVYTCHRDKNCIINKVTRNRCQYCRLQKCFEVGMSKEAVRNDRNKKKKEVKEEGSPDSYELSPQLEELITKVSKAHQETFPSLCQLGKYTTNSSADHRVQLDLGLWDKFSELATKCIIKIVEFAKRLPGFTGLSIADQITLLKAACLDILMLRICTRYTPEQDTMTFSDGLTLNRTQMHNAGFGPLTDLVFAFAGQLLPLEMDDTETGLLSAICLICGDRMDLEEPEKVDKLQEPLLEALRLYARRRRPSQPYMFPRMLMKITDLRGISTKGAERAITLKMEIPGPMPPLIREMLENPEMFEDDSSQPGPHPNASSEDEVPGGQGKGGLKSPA

[9] = molecular target: T2, Retinoic acid receptor beta (Homo sapiens) (UniProt P10826); assay: Agonist activity at Gal4-fused full length RARbeta LBD (unknown origin) transfected in HEK293T cells co-transfected with pG5luc reporter and Renilla-luc at 0.1 to 1 uM incubated for 12 hrs by luciferase reporter gene assay; type: cell-based; settings: dose 0.1-1 µM
T2 sequence (whole entry): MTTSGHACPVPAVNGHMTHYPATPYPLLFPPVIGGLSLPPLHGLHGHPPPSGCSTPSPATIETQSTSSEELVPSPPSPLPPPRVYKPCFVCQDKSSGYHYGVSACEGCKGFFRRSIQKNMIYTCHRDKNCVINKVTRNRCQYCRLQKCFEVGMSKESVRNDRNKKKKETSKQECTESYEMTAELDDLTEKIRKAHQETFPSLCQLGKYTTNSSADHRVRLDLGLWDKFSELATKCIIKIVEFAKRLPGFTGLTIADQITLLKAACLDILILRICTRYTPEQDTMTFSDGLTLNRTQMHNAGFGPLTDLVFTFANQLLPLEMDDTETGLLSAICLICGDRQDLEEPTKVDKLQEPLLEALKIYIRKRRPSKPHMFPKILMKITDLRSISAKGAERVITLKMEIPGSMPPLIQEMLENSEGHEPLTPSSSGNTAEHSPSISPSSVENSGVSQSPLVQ

NB-4 [10] = assay: Induction of apoptosis in human NB4 cells assessed as increase in cleaved-PARP expression at 2 uM incubated for 3 to 24 hrs by Western blot analysis; type: functional, cell-based; settings: time 3-24 hrs
NB-4 [11] = assay: Cell cycle arrest in human NB4 cells assessed as accumulation of cells at S phase at 0.5 uM incubated for 6 days for DAPI staining based flow cytometric analysis (reference value: 27 %); type: functional; settings: time 6 day
NB4 = assay: Induction of PML-RARalpha degradation in human NB4 cells at 0.5 uM incubated for 6 days by Western blot analysis; type: cell-based; settings: time 6.0 day
NB-4 [12] = assay: Induction of apoptosis in human NB4 cells at 2 uM incubated for 3 hrs by Western blot analysis; type: functional, cell-based
HeLa = assay: Induction of 3-flag-tagged PML-RARalpha R276E mutant (unknown origin) degradation transfected in human HeLa cells at 1 to 2 uM incubated for 24 hrs by Western blot analysis; type: cell-based; settings: dose 1-2 µM
K562 [13] = assay: Induction of apoptosis in human K562 cells assessed as early apoptotic cells at 2 uM incubated for 24 hrs by Annexin V-FITC/PI staining based flow cytometric analysis (reference value: 0.91 %); type: functional
ATRA-resistant NB4-LR2 [14] = assay: Cell cycle arrest in human ATRA-resistant NB4-LR2 cells assessed as increase in PLK1 expression at 2 uM incubated for 3 to 24 hrs by Western blot analysis; type: functional, cell-based; settings: time 3-24 hrs
[15] = molecular target: T3, Retinoic acid receptor RXR-gamma (Homo sapiens) (UniProt P48443); assay: Competitive binding affinity to Gal4-fused full length RXRgamma LBD (unknown origin) transfected in HEK293T cells co-transfected with pG5luc reporter and Renilla-luc at 0.1 to 1 uM incubated for 12 hrs in presence of ATRA by luciferase reporter gene assay; type: cell-based; settings: dose 0.1-1 µM
T3 sequence (whole entry): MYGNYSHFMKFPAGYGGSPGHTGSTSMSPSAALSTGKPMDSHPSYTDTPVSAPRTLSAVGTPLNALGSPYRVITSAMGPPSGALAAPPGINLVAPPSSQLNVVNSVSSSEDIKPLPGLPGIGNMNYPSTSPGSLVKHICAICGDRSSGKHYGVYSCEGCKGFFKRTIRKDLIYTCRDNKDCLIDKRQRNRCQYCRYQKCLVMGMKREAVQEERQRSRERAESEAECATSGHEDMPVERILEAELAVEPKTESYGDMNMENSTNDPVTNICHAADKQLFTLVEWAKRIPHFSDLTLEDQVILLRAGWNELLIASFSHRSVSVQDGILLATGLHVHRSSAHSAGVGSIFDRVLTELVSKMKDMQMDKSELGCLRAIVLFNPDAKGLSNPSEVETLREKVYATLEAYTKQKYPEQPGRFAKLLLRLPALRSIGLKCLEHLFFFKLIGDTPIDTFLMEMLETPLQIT

[16] = Induction of apoptosis in human ATRA-resistant NB4-LR2 cells assessed as late apoptotic cells at 1 uM incubated for 24 hrs by Annexin V-FITC/PI staining based flow cytometric analysis (reference value: 7.23 %); type: functional
NB-4 [17] = assay: Induction of cell differentiation in human NB4 cells assessed as morphological changes at 0.5 uM incubated for 6 days by Wright-Giemsa staining based analysis; type: functional; settings: time 6.0 day

Compound	Activity (NB-4 [1])	viability at 1 µM (K562 [2])	Activity (NB-4 [3])	Activity (NB-4 [4])	Activity (ATRA-resistant NB4-LR2 [5])	Activity (NB-4 [6])	Activity (ATRA-resistant NB4-LR2 [7])	EC50 [8]	Activity [9]	Activity (NB-4 [10])	Activity (NB-4 [11])	Activity (NB4)	Activity (NB-4 [12])	Activity (HeLa)	Activity (K562 [13])	Activity (ATRA-resistant NB4-LR2 [14])	Activity [15]	Activity [16]	Activity (NB-4 [17])
Cc1cc2c(cc1C(=O)/C(Br)=C/c1ccc(C(=O)O)cc1)C(C)(C)CCC2(C)C	15.77%	89.3%	Active	Active	Active	64%	Active	2.24 µM	Minimal_effect	Active	7%	Active	inactive	inactive	1.18%	Active	Not active; No Significant Competitive Effect On Atra Activation Observed	13.3%	Active
Cc1cc2c(cc1C(=O)/C(Br)=C\c1ccc(C(=O)O)cc1)C(C)(C)CCC2(C)C	10.49%	90.4%	Active	Active	Active	69%	Active	1.14 µM	Minimal_effect	Active	8%	Active	inactive	inactive	1.05%	Active	Not active; No Significant Competitive Effect On Atra Activation Observed	11.42%	Active
